Patent US12269831B2, “Modulators of cystic fibrosis transmembrane conductance regulator” (Vertex Pharmaceuticals Incorporated, priority 2020, dated 2025)
Read-outs that look alike come from different tables or passages of the source.

Conditions: 14-membered ring

Compound: C[C@@H]1CC=CCc2cn(Cc3ccccc3)nc2C2=NN=C(O2)c2nc(c(C(F)(F)F)cc2NC(=O)OC(C)(C)C)O1 (mixture of isomers)
- ring closure, isolated yield (from C=CCc1cn(Cc2ccccc2)nc1-c1nnc(-c2nc(O[C@H](C)CC=C)c(C(F)(F)F)cc2NC(=O)OC(C)(C)C)o1, rcm bond, Zhan-1B, DCE, 2.9 mM, 70.0 °C, 2.0 h): 37%

Compound: CCC1CCC=CC[C@](OCc2ccccc2)(C(F)(F)F)C2=NN=C(O2)c2nc(c(C(F)(F)F)cc2N(C(=O)OC(C)(C)C)C(=O)OC(C)(C)C)O1 (mixture of isomers)
- ring closure, isolated yield (from C=CCCC(CC)Oc1nc(-c2nnc([C@@](CC=C)(OCc3ccccc3)C(F)(F)F)o2)c(N(C(=O)OC(C)(C)C)C(=O)OC(C)(C)C)cc1C(F)(F)F, rcm bond, Zhan-1B, DCE, 5.4 mM, 70.0 °C): 91%

Compound: CC1CC=CCCC(OCc2ccccc2)(C(F)(F)F)C2=NN=C(O2)c2nc(c(C(F)(F)F)cc2NC(=O)OC(C)(C)C)O1 (mixture of isomers)
- ring closure, isolated yield (from C=CCCC(OCc1ccccc1)(c1nnc(-c2nc(OC(C)CC=C)c(C(F)(F)F)cc2NC(=O)OC(C)(C)C)o1)C(F)(F)F, rcm bond, Zhan-1B, DCE, 4.57 mM, 70.0 °C, 16.0 h): 36%

Compound: C[C@@H]1CC=CCC[C@](OCc2ccccc2)(C(F)(F)F)C2=NN=C(O2)c2nc(c(C(F)F)cc2NC(=O)OC(C)(C)C)O1 (mixture of isomers)
- ring closure, isolated yield (from C=CCC[C@@](OCc1ccccc1)(c1nnc(-c2nc(O[C@H](C)CC=C)c(C(F)F)cc2NC(=O)OC(C)(C)C)o1)C(F)(F)F, rcm bond, Zhan-1B, DCE, 3.0 mM, 60.0 °C, 2.0 h): 26%

Compound: C[C@@H]1COCCC[C@](OCc2ccccc2)(C(F)(F)F)C2=NN=C(O2)c2nc(c(C(F)(F)F)cc2N(C(=O)OC(C)(C)C)C(=O)OC(C)(C)C)O1
- ring closure, isolated yield (from tert-butyl N-[2-[5-[(1R)-1-benzyloxy-4-[(25)-2-hydroxypropoxy]-1-(trifluoromethyl)butyl]-1,3,4-oxadiazol-2-yl]-6-hydroxy-5-(trifluoromethyl)-3-pyridyl]-N-tert-butoxycarbonyl-carbamate, ether bond, PPh3/DIAD, THF, 15.0 mM): 50%
